Target: T1, Sm2OGD3 (Salvia miltiorrhiza, UniProt A0A8K1XH31)
T1 construct: gene TIIAS; full-length ORF (1119 nt, 373 aa printed) in pET-30a, E. coli BL21(DE3), crude extract
Experiment: UPLC / LC-MS product assay, crude recombinant E. coli extract, initial rates
Format: biochemical
Conditions: 2-oxoglutarate, ferrous sulfate, L-ascorbate; pH 8.0, 30 °C

T1 sequence (A0A8K1XH31 entry or part of it): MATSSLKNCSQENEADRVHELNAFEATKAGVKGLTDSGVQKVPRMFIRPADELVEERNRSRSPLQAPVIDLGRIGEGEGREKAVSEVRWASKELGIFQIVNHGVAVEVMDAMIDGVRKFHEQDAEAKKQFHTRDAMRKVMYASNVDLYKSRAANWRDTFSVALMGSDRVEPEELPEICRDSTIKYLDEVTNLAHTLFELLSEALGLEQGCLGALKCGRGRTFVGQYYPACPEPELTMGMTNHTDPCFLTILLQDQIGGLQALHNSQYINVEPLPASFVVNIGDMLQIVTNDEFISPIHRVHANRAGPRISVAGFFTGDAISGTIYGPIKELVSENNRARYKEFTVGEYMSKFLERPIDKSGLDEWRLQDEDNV

CC1=CCCc2c1ccc1c2C(=O)C(=O)C2=C1OCC2C (stereo not shown) [THT, 1,2,15,16-tetrahydrotanshinone I]
Km: 20.9 µM
